According to ChEMBL document CHEMBL1201862, “PubChem BioAssay data set” (2004):
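Method: 48-hour compound exposure of cells in 96-well plates, five concentrations, linear interpolation of endpoints. Here, GI50 denotes the concentration required for 50% inhibition of growth.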 Calls of active or inactive are those of the source. No stated cut-off is given here; in the data, active = GI50 up to about 1.1 µM and inactive = higher.

Assays:
Test in all cases: DTP human tumour cell line panel, 48 h
COLO 205 = tested on: COLO 205
UACC-257 = tested on: UACC-257
OVCAR-3 = tested on: OVCAR-3
NCI-H460 = tested on: NCI-H460
OVCAR-5 = tested on: OVCAR-5
NCI-H522 = tested on: NCI-H522
MDA-MB-435 = tested on: MDA-MB-435
K562 = tested on: K562
CCRF-CEM = tested on: CCRF-CEM
NCI/ADR-RES = tested on: NCI/ADR-RES
SR = tested on: SR
SF-268 = tested on: SF-268
ACHN = tested on: ACHN
T47D = tested on: T47D
OVCAR-8 = tested on: OVCAR-8
IGROV-1 = tested on: IGROV-1
SF-539 = tested on: SF-539
NCI-H23 = tested on: NCI-H23
M14 = tested on: M14
MDA-N = tested on: MDA-N
SNB-19 = tested on: SNB-19
NCI-H226 = tested on: NCI-H226
SN12C = tested on: SN12C
UACC-62 = tested on: UACC-62
HCT-15 = tested on: HCT-15
786-0 = tested on: 786-0
SF-295 = tested on: SF-295
CAKI-1 = tested on: CAKI-1
HCT-116 = tested on: HCT-116
MDA-MB-231 = tested on: MDA-MB-231
KM12 = tested on: KM12
TK-10 = tested on: TK-10
SK-MEL-5 = tested on: SK-MEL-5
SNB-75 = tested on: SNB-75
RXF 393 = tested on: RXF 393
HOP-92 = tested on: HOP-92
A498 = tested on: A498
HCC 2998 = tested on: HCC 2998
OVCAR-4 = tested on: OVCAR-4
EKVX = tested on: EKVX
Hs-578T = tested on: Hs-578T
SK-MEL-2 = tested on: SK-MEL-2
U-251 = tested on: U-251
PC-3 = tested on: PC-3
LOX IMVI = tested on: LOX IMVI
SW-620 = tested on: SW-620
UO-31 = tested on: UO-31
Malme-3M = tested on: Malme-3M
HT-29 = tested on: HT-29
SK-OV-3 = tested on: SK-OV-3
HOP-62 = tested on: HOP-62
MCF7 = tested on: MCF7
A549 = tested on: A549
MOLT-4 = tested on: MOLT-4
RPMI-8226 = tested on: RPMI-8226
BT-549 = tested on: BT-549
HL-60 = tested on: HL-60
SK-MEL-28 = tested on: SK-MEL-28

Q: With `O=c1[nH]c2ccccc2c2oc(-c3ccccc3)nc12` as the molecule, how does the GI50 (COLO 205) read?
A: The GI50 was 18.6 µM (inactive).

Q: What about the GI50 (UACC-257) of the same molecule?
A: Its GI50 is > 100 µM (inactive).

Q: And the GI50 (OVCAR-3)?
A: Its GI50 is > 100 µM (inactive).

Q: And the GI50 (NCI-H460)?
A: Its GI50 is > 100 µM (inactive).

Q: What about the GI50 (OVCAR-5) of the same molecule?
A: The GI50 was > 100 µM (inactive).

Q: And the GI50 (NCI-H522)?
A: The GI50 was 61.5 µM (inactive).

Q: What about the GI50 (MDA-MB-435) of the same molecule?
A: Its GI50 is 18.4 µM (inactive).

Q: What about the GI50 (K562) of the same molecule?
A: Its GI50 is 36.1 µM (inactive).

Q: And the GI50 (CCRF-CEM)?
A: Its GI50 is 18.4 µM (inactive).

Q: And the GI50 (NCI/ADR-RES)?
A: The GI50 was > 100 µM (inactive).

Q: And the GI50 (SR)?
A: Its GI50 is 15.9 µM (inactive).

Q: What about the GI50 (SF-268) of the same molecule?
A: The GI50 was 21.3 µM (inactive).

Q: And the GI50 (ACHN)?
A: Its GI50 is > 100 µM (inactive).

Q: And the GI50 (T47D)?
A: The GI50 was 51.2 µM (inactive).

Q: What about the GI50 (OVCAR-8) of the same molecule?
A: The GI50 was 22.4 µM (inactive).

Q: And the GI50 (IGROV-1)?
A: Its GI50 is > 100 µM (inactive).

Q: What about the GI50 (SF-539) of the same molecule?
A: Its GI50 is 16.7 µM (inactive).

Q: What about the GI50 (NCI-H23) of the same molecule?
A: The GI50 was 65.8 µM (inactive).

Q: And the GI50 (M14)?
A: The GI50 was > 100 µM (inactive).

Q: And the GI50 (MDA-N)?
A: Its GI50 is 20.2 µM (inactive).

Q: And the GI50 (SNB-19)?
A: Its GI50 is 26.1 µM (inactive).

Q: What about the GI50 (NCI-H226) of the same molecule?
A: The GI50 was 88.9 µM (inactive).

Q: And the GI50 (SN12C)?
A: The GI50 was 16.5 µM (inactive).

Q: And the GI50 (UACC-62)?
A: The GI50 was 88.3 µM (inactive).

Q: And the GI50 (HCT-15)?
A: Its GI50 is > 100 µM.

Q: What about the GI50 (786-0) of the same molecule?
A: Its GI50 is 23.6 µM (inactive).

Q: And the GI50 (SF-295)?
A: Its GI50 is 23.9 µM (inactive).

Q: What about the GI50 (CAKI-1) of the same molecule?
A: The GI50 was 18.9 µM (inactive).

Q: And the GI50 (HCT-116)?
A: Its GI50 is 24 µM (inactive).

Q: What about the GI50 (MDA-MB-231) of the same molecule?
A: Its GI50 is 17.3 µM (inactive).

Q: And the GI50 (KM12)?
A: Its GI50 is 50.5 µM (inactive).

Q: And the GI50 (TK-10)?
A: The GI50 was 54.6 µM (inactive).

Q: What about the GI50 (SK-MEL-5) of the same molecule?
A: Its GI50 is 30.5 µM (inactive).

Q: And the GI50 (SNB-75)?
A: The GI50 was 20.2 µM (inactive).

Q: And the GI50 (RXF 393)?
A: Its GI50 is 20.4 µM (inactive).

Q: And the GI50 (HOP-92)?
A: The GI50 was 28.5 µM (inactive).

Q: And the GI50 (A498)?
A: Its GI50 is 27 µM (inactive).

Q: What about the GI50 (HCC 2998) of the same molecule?
A: The GI50 was > 100 µM (inactive).

Q: And the GI50 (OVCAR-4)?
A: The GI50 was 60.7 µM (inactive).

Q: What about the GI50 (EKVX) of the same molecule?
A: Its GI50 is > 100 µM (inactive).

Q: And the GI50 (Hs-578T)?
A: Its GI50 is 25.1 µM (inactive).

Q: What about the GI50 (SK-MEL-2) of the same molecule?
A: Its GI50 is 24.2 µM (inactive).

Q: What about the GI50 (U-251) of the same molecule?
A: The GI50 was 24.7 µM (inactive).

Q: And the GI50 (PC-3)?
A: Its GI50 is > 100 µM (inactive).

Q: What about the GI50 (LOX IMVI) of the same molecule?
A: Its GI50 is 21.3 µM (inactive).

Q: What about the GI50 (SW-620) of the same molecule?
A: The GI50 was 22.9 µM (inactive).

Q: And the GI50 (UO-31)?
A: Its GI50 is > 100 µM (inactive).

Q: What about the GI50 (Malme-3M) of the same molecule?
A: Its GI50 is > 100 µM (inactive).

Q: What about the GI50 (HT-29) of the same molecule?
A: The GI50 was > 100 µM (inactive).

Q: And the GI50 (SK-OV-3)?
A: Its GI50 is 37.2 µM (inactive).

Q: And the GI50 (HOP-62)?
A: The GI50 was 15.8 µM (inactive).

Q: And the GI50 (MCF7)?
A: Its GI50 is 44.8 µM (inactive).

Q: And the GI50 (A549)?
A: The GI50 was 47.6 µM (inactive).

Q: And the GI50 (MOLT-4)?
A: The GI50 was 26.6 µM (inactive).

Q: What about the GI50 (RPMI-8226) of the same molecule?
A: Its GI50 is 27.9 µM (inactive).

Q: And the GI50 (BT-549)?
A: The GI50 was 31.2 µM (inactive).

Q: What does the source list for `Cc1nc(C(N)=S)sc1C(=O)CC(=O)C(=O)Nc1cccc(Cl)c1C`?
A: GI50 (UACC-257): > 100 µM (inactive); GI50 (OVCAR-3): > 100 µM (inactive); GI50 (NCI-H460): > 100 µM (inactive); GI50 (OVCAR-5): > 100 µM (inactive); GI50 (NCI-H522): > 100 µM (inactive); GI50 (MDA-MB-435): > 100 µM (inactive); GI50 (K562): > 100 µM (inactive); GI50 (CCRF-CEM): > 100 µM (inactive); GI50 (HL-60): > 100 µM (inactive); GI50 (NCI/ADR-RES): > 100 µM (inactive); GI50 (SR): > 100 µM (inactive); GI50 (SF-268): > 100 µM (inactive); GI50 (ACHN): > 100 µM (inactive); GI50 (T47D): > 100 µM (inactive); GI50 (OVCAR-8): > 100 µM (inactive); GI50 (IGROV-1): > 100 µM (inactive); GI50 (SF-539): > 100 µM (inactive); GI50 (NCI-H23): > 100 µM (inactive); GI50 (M14): > 100 µM (inactive); GI50 (MDA-N): > 100 µM (inactive); GI50 (SNB-19): > 100 µM (inactive); GI50 (NCI-H226): > 100 µM (inactive); GI50 (SN12C): > 100 µM (inactive); GI50 (UACC-62): > 100 µM (inactive); GI50 (HCT-15): > 100 µM; GI50 (786-0): > 100 µM (inactive); GI50 (SF-295): > 100 µM (inactive); GI50 (CAKI-1): > 100 µM (inactive); GI50 (HCT-116): > 100 µM (inactive); GI50 (MDA-MB-231): > 100 µM (inactive); GI50 (KM12): > 100 µM (inactive); GI50 (TK-10): > 100 µM (inactive); GI50 (SK-MEL-5): > 100 µM (inactive); GI50 (SNB-75): > 100 µM (inactive); GI50 (RXF 393): > 100 µM (inactive); GI50 (HOP-92): > 100 µM (inactive); GI50 (A498): > 100 µM (inactive); GI50 (HCC 2998): > 100 µM (inactive); GI50 (SK-MEL-28): > 100 µM (inactive); GI50 (OVCAR-4): > 100 µM (inactive); GI50 (EKVX): > 100 µM (inactive); GI50 (Hs-578T): > 100 µM (inactive); GI50 (SK-MEL-2): > 100 µM (inactive); GI50 (U-251): > 100 µM (inactive); GI50 (PC-3): > 100 µM (inactive); GI50 (LOX IMVI): > 100 µM (inactive); GI50 (SW-620): > 100 µM (inactive); GI50 (UO-31): > 100 µM (inactive); GI50 (Malme-3M): > 100 µM (inactive); GI50 (HT-29): > 100 µM (inactive); GI50 (SK-OV-3): > 100 µM (inactive); GI50 (HOP-62): > 100 µM (inactive); GI50 (MCF7): > 100 µM (inactive); GI50 (A549): > 100 µM (inactive); GI50 (MOLT-4): > 100 µM (inactive); GI50 (RPMI-8226): > 100 µM (inactive); GI50 (BT-549): > 100 µM (inactive)
